Values of other authors in US20090130675A1, “Genes Involved in the Biosynthesis of Thiocoraline and Heterologous Production of Same” (PHARMA MAR, S.A., priority 2005, published 2009).

Columns and labels:
[1] = test system: human carcinoma xenografts; details: in vivo, human carcinoma xenografts (Faircloth et al. 1997)
[2] = test system: cell lines of different types of solid tumors, such as melanoma, breast, non-microcytic lung and colon cancer; details: in vitro
[3] = test system: Gram-positive bacteria; details: against Gram-positive bacteria

In the case of Thiocoraline, the antitumor activity [1] is listed as “marked antitumor activity”, the “capacity to inhibit the growth of cell lines” value [2] is listed as “inhibit the growth of cell lines” and the antibacterial activity [3] is listed as “shows antibacterial activity”.
